In patent publication US9809578B2, “Pyrazolyl urea, thiourea, guanidine and cyanoguanidine compounds as trkA kinase inhibitors” (Array BioPharma Inc., priority 2012, dated 2017):

Key:
Format in all cases: biochemical
Details in all cases: 10 μM, ATP near Km
PDGFRalpha = molecular target: T1, PDGFRalpha (Homo sapiens, UniProt P16234); test: KinaseProfiler PDGFRalpha
T1 construct: purchased Millipore, Inc. (KinaseProfiler service)
From the text: (§1) The compound was run in duplicate at a concentration of ATP near the Km for each individual kinase according to Millipore's specifications.

PKD1 = molecular target: T2, PKD1 (Homo sapiens, UniProt Q15139); test: KinaseProfiler PKD1
T2 construct: purchased Millipore, Inc. (KinaseProfiler service)
From the text: as §1

JAK2 = molecular target: T3, JAK2 (Homo sapiens, UniProt O60674); test: KinaseProfiler JAK2
T3 construct: purchased Millipore, Inc. (KinaseProfiler service)
From the text: as §1

JNK3 = molecular target: T4, JNK3 (Homo sapiens, UniProt P53779); test: KinaseProfiler JNK3
T4 construct: purchased Millipore, Inc. (KinaseProfiler service)
From the text: as §1

AKT2 = molecular target: T5, AKT2 (Homo sapiens, UniProt P31751); test: KinaseProfiler AKT2
T5 construct: purchased Millipore (KinaseProfiler service)
From the text: as §1

TBK1 = molecular target: T6, TBK1 (Homo sapiens, UniProt Q9UHD2); test: KinaseProfiler TBK1
T6 construct: purchased Millipore, Inc. (KinaseProfiler service)
T6 sequence (Q9UHD2 whole entry): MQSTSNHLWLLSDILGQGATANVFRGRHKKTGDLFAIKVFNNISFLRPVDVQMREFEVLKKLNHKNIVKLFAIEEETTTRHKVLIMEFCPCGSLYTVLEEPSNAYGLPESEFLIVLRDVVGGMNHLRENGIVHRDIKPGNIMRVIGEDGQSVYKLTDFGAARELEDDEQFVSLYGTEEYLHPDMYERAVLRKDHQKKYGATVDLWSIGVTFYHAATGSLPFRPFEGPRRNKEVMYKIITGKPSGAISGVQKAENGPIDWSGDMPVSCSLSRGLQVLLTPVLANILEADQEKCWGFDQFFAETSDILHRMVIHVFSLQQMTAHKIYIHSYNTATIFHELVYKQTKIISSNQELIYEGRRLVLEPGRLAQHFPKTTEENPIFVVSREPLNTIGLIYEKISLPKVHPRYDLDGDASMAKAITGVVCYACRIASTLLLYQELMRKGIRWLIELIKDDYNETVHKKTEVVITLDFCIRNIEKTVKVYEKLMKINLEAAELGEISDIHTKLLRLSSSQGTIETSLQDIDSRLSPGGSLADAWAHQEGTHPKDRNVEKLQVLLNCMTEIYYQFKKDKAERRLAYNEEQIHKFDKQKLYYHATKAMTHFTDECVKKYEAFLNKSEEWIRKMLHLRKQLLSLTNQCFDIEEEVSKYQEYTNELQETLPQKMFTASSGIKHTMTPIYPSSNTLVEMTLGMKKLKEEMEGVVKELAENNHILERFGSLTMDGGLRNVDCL
From the text: as §1

Tie2 = molecular target: T7, Tie2 (Homo sapiens, UniProt Q02763); test: KinaseProfiler Tie2
T7 construct: purchased Millipore, Inc. (KinaseProfiler service)
From the text: as §1

PAK4 = molecular target: T8, PAK4 (Homo sapiens, UniProt O96013); test: KinaseProfiler PAK4
T8 construct: purchased Millipore, Inc. (KinaseProfiler service)
T8 sequence (O96013 whole entry): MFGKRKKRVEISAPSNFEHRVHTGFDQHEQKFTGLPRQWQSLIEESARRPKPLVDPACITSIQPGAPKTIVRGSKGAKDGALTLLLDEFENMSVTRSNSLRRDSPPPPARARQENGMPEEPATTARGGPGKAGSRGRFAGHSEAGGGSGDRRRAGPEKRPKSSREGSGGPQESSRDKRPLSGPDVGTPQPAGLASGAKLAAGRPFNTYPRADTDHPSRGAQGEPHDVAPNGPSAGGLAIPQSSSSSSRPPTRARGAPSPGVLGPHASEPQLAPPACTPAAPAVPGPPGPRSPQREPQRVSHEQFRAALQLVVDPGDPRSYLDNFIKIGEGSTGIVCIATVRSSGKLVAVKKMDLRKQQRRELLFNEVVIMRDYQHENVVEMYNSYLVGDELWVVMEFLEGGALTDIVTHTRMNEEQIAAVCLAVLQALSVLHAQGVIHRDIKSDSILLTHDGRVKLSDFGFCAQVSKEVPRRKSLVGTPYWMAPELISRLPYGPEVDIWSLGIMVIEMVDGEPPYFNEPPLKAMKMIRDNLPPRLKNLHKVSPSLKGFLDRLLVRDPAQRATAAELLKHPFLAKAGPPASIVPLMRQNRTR
From the text: as §1

Flt4 = molecular target: T9, Flt4 (Homo sapiens, UniProt P35916); test: KinaseProfiler Flt4
T9 construct: purchased Millipore, Inc. (KinaseProfiler service)
From the text: as §1

IRAK4 = molecular target: T10, IRAK4 (Homo sapiens, UniProt Q9NWZ3); test: KinaseProfiler IRAK4
T10 construct: purchased Millipore, Inc. (KinaseProfiler service)
T10 sequence (Q9NWZ3 whole entry): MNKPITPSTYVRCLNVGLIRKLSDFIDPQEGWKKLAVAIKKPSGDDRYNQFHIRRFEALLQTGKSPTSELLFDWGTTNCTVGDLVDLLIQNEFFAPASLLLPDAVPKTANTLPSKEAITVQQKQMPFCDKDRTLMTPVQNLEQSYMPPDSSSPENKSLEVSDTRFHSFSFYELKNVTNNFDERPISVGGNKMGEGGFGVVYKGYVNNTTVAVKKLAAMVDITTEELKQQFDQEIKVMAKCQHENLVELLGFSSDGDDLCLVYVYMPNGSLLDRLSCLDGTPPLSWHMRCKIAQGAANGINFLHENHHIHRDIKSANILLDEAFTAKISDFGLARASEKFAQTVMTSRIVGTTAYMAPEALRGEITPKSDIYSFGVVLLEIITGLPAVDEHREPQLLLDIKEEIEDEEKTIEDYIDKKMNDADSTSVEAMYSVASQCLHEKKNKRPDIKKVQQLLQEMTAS
From the text: as §1

CAMK2b = molecular target: T11, CAMK2b (Homo sapiens, UniProt Q13554); test: KinaseProfiler CAMK2b
T11 construct: purchased Millipore (KinaseProfiler service)
From the text: as §1

PDGFRbeta = molecular target: T12, PDGFRbeta (Homo sapiens, UniProt P09619); test: KinaseProfiler PDGFRbeta
T12 construct: purchased Millipore, Inc. (KinaseProfiler service)
T12 sequence (P09619 33-1106): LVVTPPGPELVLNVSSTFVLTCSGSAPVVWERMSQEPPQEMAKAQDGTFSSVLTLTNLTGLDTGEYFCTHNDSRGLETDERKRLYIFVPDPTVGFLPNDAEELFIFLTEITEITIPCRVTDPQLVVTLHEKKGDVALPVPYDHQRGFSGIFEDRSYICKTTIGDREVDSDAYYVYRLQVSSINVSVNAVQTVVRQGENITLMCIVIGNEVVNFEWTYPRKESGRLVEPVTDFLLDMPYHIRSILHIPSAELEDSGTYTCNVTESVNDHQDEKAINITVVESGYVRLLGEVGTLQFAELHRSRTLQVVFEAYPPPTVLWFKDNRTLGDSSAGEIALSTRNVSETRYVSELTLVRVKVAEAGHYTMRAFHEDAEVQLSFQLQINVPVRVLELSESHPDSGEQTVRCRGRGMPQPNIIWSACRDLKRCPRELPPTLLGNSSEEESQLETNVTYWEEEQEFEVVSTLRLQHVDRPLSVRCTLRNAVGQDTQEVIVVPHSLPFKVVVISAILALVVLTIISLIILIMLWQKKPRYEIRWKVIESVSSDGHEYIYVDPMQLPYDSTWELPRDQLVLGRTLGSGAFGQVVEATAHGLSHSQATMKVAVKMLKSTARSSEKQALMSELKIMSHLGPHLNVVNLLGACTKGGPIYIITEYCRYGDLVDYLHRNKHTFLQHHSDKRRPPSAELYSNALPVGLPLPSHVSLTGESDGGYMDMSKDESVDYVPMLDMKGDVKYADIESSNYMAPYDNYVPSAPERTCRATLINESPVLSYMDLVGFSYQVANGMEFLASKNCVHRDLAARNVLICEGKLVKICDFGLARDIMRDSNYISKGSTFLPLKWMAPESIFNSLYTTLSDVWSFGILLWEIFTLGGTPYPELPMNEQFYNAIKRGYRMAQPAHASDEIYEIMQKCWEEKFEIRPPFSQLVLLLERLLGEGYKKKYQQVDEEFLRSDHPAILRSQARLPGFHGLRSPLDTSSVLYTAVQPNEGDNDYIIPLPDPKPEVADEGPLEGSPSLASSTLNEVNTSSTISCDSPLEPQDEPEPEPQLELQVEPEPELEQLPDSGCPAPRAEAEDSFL
From the text: as §1

EphA7 = molecular target: T13, EphA7 (Homo sapiens, UniProt Q15375); test: KinaseProfiler EphA7
T13 construct: purchased Millipore, Inc. (KinaseProfiler service)
T13 sequence (Q15375 28-998): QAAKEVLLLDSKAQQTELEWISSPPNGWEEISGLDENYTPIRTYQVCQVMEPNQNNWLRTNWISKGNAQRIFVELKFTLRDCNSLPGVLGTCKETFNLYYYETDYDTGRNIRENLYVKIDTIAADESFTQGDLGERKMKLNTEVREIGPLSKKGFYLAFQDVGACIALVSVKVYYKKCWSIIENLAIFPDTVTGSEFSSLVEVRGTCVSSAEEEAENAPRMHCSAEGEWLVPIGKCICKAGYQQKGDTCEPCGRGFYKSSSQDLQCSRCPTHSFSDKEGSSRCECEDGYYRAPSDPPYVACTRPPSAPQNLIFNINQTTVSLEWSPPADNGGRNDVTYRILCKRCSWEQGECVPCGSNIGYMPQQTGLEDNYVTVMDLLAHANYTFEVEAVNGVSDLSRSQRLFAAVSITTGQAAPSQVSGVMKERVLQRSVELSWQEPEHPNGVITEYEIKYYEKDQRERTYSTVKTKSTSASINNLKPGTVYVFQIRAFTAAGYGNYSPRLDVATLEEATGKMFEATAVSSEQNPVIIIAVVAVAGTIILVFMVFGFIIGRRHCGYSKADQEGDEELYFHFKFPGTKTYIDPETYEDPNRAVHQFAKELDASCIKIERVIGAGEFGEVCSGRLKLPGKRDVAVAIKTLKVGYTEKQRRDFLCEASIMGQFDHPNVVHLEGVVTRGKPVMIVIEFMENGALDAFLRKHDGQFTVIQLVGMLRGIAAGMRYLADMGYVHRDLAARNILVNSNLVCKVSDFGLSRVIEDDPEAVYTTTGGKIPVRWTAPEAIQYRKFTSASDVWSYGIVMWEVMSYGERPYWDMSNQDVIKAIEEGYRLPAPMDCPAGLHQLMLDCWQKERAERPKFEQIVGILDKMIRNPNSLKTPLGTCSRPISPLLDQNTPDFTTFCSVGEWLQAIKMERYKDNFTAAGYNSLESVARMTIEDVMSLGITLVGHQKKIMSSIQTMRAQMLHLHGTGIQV
From the text: as §1

Flt3 = molecular target: T14, Flt3 (Homo sapiens, UniProt P36888); test: KinaseProfiler Flt3
T14 construct: purchased Millipore, Inc. (KinaseProfiler service)
From the text: as §1

NEK6 = molecular target: T15, NEK6 (Homo sapiens, UniProt Q9HC98); test: KinaseProfiler NEK6
T15 construct: purchased Millipore, Inc. (KinaseProfiler service)
From the text: as §1

IGF-1R Activated = molecular target: T16, IGF-1R Activated (Homo sapiens, UniProt P08069); test: KinaseProfiler IGF-1R Activated
T16 construct: purchased Millipore, Inc. (KinaseProfiler service)
From the text: as §1

ERK1 = molecular target: T17, ERK1 (Homo sapiens, UniProt P27361); test: KinaseProfiler ERK1
T17 construct: purchased Millipore, Inc. (KinaseProfiler service)
From the text: as §1

CDK5/p35 = molecular target: T18, CDK5/p35 (Homo sapiens, UniProt Q00535); test: KinaseProfiler CDK5/p35
T18 construct: purchased Millipore, Inc. (KinaseProfiler service)
From the text: as §1

CAMK1 = molecular target: T19, CAMK1 (Homo sapiens, UniProt Q14012); test: KinaseProfiler CAMK1
T19 construct: purchased Millipore (KinaseProfiler service)
From the text: as §1

PKCepsilon = molecular target: T20, PKCepsilon (Homo sapiens, UniProt Q02156); test: KinaseProfiler PKCepsilon
T20 construct: purchased Millipore, Inc. (KinaseProfiler service)
From the text: as §1

DAPK2 = molecular target: T21, DAPK2 (Homo sapiens, UniProt Q9UIK4); test: KinaseProfiler DAPK2
T21 construct: purchased Millipore, Inc. (KinaseProfiler service)
From the text: as §1

PKD2 = molecular target: T22, PKD2 (Homo sapiens, UniProt Q9BZL6); test: KinaseProfiler PKD2
T22 construct: purchased Millipore, Inc. (KinaseProfiler service)
T22 sequence (Q9BZL6 whole entry): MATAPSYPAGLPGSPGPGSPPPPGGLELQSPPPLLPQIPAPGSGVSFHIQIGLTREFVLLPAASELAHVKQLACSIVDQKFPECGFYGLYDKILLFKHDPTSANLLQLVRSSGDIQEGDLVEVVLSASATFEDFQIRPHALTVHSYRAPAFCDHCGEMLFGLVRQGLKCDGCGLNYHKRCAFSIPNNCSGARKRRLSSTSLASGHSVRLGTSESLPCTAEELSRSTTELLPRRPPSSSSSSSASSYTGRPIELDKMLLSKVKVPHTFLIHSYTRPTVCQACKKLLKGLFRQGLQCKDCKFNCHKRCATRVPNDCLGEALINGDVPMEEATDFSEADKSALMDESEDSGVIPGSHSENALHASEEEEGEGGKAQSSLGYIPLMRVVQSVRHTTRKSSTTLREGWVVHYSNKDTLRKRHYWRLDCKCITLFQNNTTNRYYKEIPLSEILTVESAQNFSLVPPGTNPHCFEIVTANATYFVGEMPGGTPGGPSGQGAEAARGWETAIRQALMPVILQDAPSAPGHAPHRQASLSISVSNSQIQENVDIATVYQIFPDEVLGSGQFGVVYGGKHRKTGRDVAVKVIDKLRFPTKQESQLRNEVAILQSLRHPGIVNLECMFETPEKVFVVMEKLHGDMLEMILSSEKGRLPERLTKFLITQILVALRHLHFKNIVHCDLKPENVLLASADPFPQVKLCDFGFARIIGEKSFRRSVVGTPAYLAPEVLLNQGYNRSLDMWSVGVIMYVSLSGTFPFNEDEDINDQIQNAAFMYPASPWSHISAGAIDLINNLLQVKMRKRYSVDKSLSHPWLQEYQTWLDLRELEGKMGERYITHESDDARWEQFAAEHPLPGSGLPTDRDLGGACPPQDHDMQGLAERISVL
From the text: as §1

MAPKAP-K3 = molecular target: T23, MAPKAP-K3 (Homo sapiens, UniProt Q16644); test: KinaseProfiler MAPKAP-K3
T23 construct: purchased Millipore, Inc. (KinaseProfiler service)
From the text: as §1

Mer = molecular target: T24, Mer (Homo sapiens, UniProt Q12866); test: KinaseProfiler Mer
T24 construct: purchased Millipore, Inc. (KinaseProfiler service)
From the text: as §1

WNK3 = molecular target: T25, WNK3 (Homo sapiens, UniProt Q9BYP7); test: KinaseProfiler WNK3
T25 construct: purchased Millipore, Inc. (KinaseProfiler service)
From the text: as §1

CDK2/cyclinA = molecular target: T26, CDK2/cyclinA (Homo sapiens, UniProt P24941); test: KinaseProfiler CDK2/cyclinA
T26 construct: purchased Millipore, Inc. (KinaseProfiler service)
From the text: as §1

HIPK1 = molecular target: T27, HIPK1 (Homo sapiens, UniProt Q86Z02); test: KinaseProfiler HIPK1
T27 construct: purchased Millipore, Inc. (KinaseProfiler service)
From the text: as §1

Rsk4 = molecular target: T28, Rsk4 (Homo sapiens, UniProt Q9UK32); test: KinaseProfiler Rsk4
T28 construct: purchased Millipore, Inc. (KinaseProfiler service)
From the text: as §1

LOK = molecular target: T29, LOK (Homo sapiens, UniProt O94804); test: KinaseProfiler LOK
T29 construct: purchased Millipore, Inc. (KinaseProfiler service)
From the text: as §1

MKK6 = molecular target: T30, MKK6 (Homo sapiens, UniProt P52564); test: KinaseProfiler MKK6
T30 construct: purchased Millipore, Inc. (KinaseProfiler service)
From the text: as §1

MRCKbeta = molecular target: T31, MRCKbeta (Homo sapiens, UniProt Q9Y5S2); test: KinaseProfiler MRCKbeta
T31 construct: purchased Millipore, Inc. (KinaseProfiler service)
From the text: as §1

Lck = molecular target: T32, Lck (Homo sapiens, UniProt P06239); test: KinaseProfiler Lck
T32 construct: purchased Millipore, Inc. (KinaseProfiler service)
From the text: as §1

SIK = molecular target: T33, SIK (Homo sapiens, UniProt P57059); test: KinaseProfiler SIK
T33 construct: purchased Millipore, Inc. (KinaseProfiler service)
From the text: as §1

Pim-2 = molecular target: T34, Pim-2 (Homo sapiens, UniProt Q9P1W9); test: KinaseProfiler Pim-2
T34 construct: purchased Millipore, Inc. (KinaseProfiler service)
T34 sequence (Q9P1W9 whole entry): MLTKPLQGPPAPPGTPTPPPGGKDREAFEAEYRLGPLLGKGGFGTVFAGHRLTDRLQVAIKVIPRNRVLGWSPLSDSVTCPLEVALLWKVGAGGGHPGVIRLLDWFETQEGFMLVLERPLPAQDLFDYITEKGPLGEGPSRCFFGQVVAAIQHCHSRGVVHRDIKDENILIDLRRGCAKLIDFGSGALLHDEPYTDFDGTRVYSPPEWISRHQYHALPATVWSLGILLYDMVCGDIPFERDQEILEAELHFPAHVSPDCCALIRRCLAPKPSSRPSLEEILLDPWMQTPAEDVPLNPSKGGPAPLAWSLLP
From the text: as §1

PKAC-alpha = molecular target: T35, PKAC-alpha (Homo sapiens, UniProt P17612); test: KinaseProfiler PKAC-alpha
T35 construct: purchased Millipore, Inc. (KinaseProfiler service)
From the text: as §1

SRPK2 = molecular target: T36, SRPK2 (Homo sapiens, UniProt P78362); test: KinaseProfiler SRPK2
T36 construct: purchased Millipore, Inc. (KinaseProfiler service)
From the text: as §1

PAK6 = molecular target: T37, PAK6 (Homo sapiens, UniProt Q9NQU5); test: KinaseProfiler PAK6
T37 construct: purchased Millipore, Inc. (KinaseProfiler service)
From the text: as §1

MEK1 = molecular target: T38, MEK1 (Homo sapiens, UniProt Q02750); test: KinaseProfiler MEK1
T38 construct: purchased Millipore, Inc. (KinaseProfiler service)
From the text: as §1

ZAP-70 = molecular target: T39, ZAP-70 (Homo sapiens, UniProt P43403); test: KinaseProfiler ZAP-70
T39 construct: purchased Millipore, Inc. (KinaseProfiler service)
From the text: as §1

PAK2 = molecular target: T40, PAK2 (Homo sapiens, UniProt Q13177); test: KinaseProfiler PAK2
T40 construct: purchased Millipore, Inc. (KinaseProfiler service)
From the text: as §1

PKCbetaII = molecular target: T41, PKCbetaII (Homo sapiens, UniProt P05771); test: KinaseProfiler PKCbetaII
T41 construct: purchased Millipore, Inc. (KinaseProfiler service)
From the text: as §1

TrkB = molecular target: T42, TrkB (Homo sapiens, UniProt Q16620); test: KinaseProfiler TrkB
T42 construct: purchased Millipore, Inc. (KinaseProfiler service)
From the text: as §1

IRAK1 = molecular target: T43, IRAK1 (Homo sapiens, UniProt P51617); test: KinaseProfiler IRAK1
T43 construct: purchased Millipore, Inc. (KinaseProfiler service)
From the text: as §1

Cc1c(-c2cnn(C)c2)nn(-c2ccccc2)c1NC(=O)Nc1cc(C(F)(F)F)nn1-c1ccccc1 [Example 3, 1-(1′,4-dimethyl-1-phenyl-1H,1′H-[3,4′-bipyrazol]-5-yl)-3-(1-phenyl-3-(trifluoromethyl)-1H-pyrazol-5-yl)urea]
Avg POC (PDGFRalpha): 106 POC | Avg POC (PKD1): 100.5 POC | Avg POC (JAK2): 136.5 POC | Avg POC (JNK3): 124.5 POC | Avg POC (AKT2): 219.5 POC | Avg POC (TBK1): 103 POC | Avg POC (Tie2): 121.5 POC | Avg POC (PAK4): 103 POC | Avg POC (Flt4): 80.5 POC | Avg POC (IRAK4): 131.5 POC | Avg POC (CAMK2b): 96.5 POC | Avg POC (PDGFRbeta): 175 POC | Avg POC (EphA7): 91 POC | Avg POC (Flt3): 71 POC | Avg POC (NEK6): 125 POC | Avg POC (IGF-1R Activated): 87 POC | Avg POC (ERK1): 111.5 POC | Avg POC (CDK5/p35): 110.5 POC | Avg POC (CAMK1): 103.5 POC | Avg POC (PKCepsilon): 98 POC | Avg POC (DAPK2): 106 POC | Avg POC (PKD2): 115 POC | Avg POC (MAPKAP-K3): 128.5 POC | Avg POC (Mer): 104.5 POC | Avg POC (WNK3): 108 POC | Avg POC (CDK2/cyclinA): 100.5 POC | Avg POC (HIPK1): 115.5 POC | Avg POC (Rsk4): 99 POC | Avg POC (LOK): 97.5 POC | Avg POC (MKK6): 132.5 POC | Avg POC (MRCKbeta): 121.5 POC | Avg POC (Lck): 93 POC | Avg POC (SIK): 154.5 POC | Avg POC (Pim-2): 117.5 POC | Avg POC (PKAC-alpha): 136.5 POC | Avg POC (SRPK2): 112.5 POC | Avg POC (PAK6): 167 POC | Avg POC (MEK1): 111 POC | Avg POC (ZAP-70): 135 POC | Avg POC (PAK2): 98 POC | Avg POC (PKCbetaII): 96.5 POC | Avg POC (TrkB): 95 POC | Avg POC (IRAK1): 102.5 POC
